These results are taken from US20250122239A1 (K BENHAVNS UNIVERSITET, published 2025).

Ends that are not written are not given here.

The subject of one test is lean mice. The test is described as follows: food intake in chow fed lean mice, shortened GLP-1-NT combination peptides (Example 9). The class given is in vivo. Conditions: 100 nmol/kg, single SC injection, chow fed lean mice fasted overnight. The protocol: Chow fed lean mice fasted overnight were injected once SC in the beginning of the light cycle and food returned. Food intake measured continuously after injection in an indirect calorimetry system. Food intake was analysed using repeated measures two-way ANOVA followed by a Tukey's post hoc test.

For test [1], the target named is human neurotensin receptor NTSR1 (pCMVhNTSR 1, transiently expressed in HEK293 cells) (human, UniProt P30989 1-418). The test is described as follows: cell-based or functional assay.
Sequence of human neurotensin receptor NTSR1 (pCMVhNTSR 1, transiently expressed in HEK293 cells) (P30989 whole entry): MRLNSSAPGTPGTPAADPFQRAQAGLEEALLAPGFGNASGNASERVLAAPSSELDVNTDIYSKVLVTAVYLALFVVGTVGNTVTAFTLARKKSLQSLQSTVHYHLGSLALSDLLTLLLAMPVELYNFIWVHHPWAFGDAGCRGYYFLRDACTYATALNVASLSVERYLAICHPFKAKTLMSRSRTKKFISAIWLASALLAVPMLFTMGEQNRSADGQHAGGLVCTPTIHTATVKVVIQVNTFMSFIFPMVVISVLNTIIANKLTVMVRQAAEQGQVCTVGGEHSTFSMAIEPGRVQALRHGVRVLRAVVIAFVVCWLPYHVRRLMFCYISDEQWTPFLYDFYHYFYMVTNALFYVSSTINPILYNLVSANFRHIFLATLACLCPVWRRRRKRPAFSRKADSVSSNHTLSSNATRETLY

For the molecule “HAEGTFTSDVSSYLEGQELYENKPRRPYIL-acid (HAEGTFTSDVSSYLEGQELYENKPRRPYIL-OH) [Peptide 9]”, the “food intake in comparison to saline” value in the test on lean mice was “p<0.05 peptide 9 vs. saline”.
Regarding “HAEFTFTSDVSSYLEGQKKGGELYENKPRRPYIL-acid (HAEFTFTSDVSSYLEGQKKGGELYENKPRRPYIL-OH) [Peptide 10]”, the “food intake in comparison to saline” value in the test on lean mice was “p<0.001 peptide 10 vs. saline”.
As for HAEGTFTSDVSSYLEGQAAKEFIAWLVKGRLYENKPRRPYIL [GLP-1/NT fusion peptide (SEQ ID NO: 45)], the “inositol phosphate (IP) accumulation, LogEC50” value in test [1] was -8.5.
